Results published in patent publication US10351578B2, “Heterocyclic-substituted pyridinopyrimidinone derivative as CDK inhibitor and use thereof” (Shanghai Xunhe Pharmaceutical Technology Co. Ltd., priority 2016, dated 2019).

Columns and labels:
[1] = target: T1, CDK4 protein kinase (GST-CDK4(1-303 end)) (Homo sapiens, UniProt P11802); assay: CDK4 protein kinase activity, Caliper mobility shift assay; format: biochemical; settings: substrate Peptide FAM-P8, 28° C. for 3 h
T1 construct: GST-CDK4(1-303 end); GST (N)
Protocol: (§1) Activity Assay: The CDK4 protein kinase activity was measured using the Caliper mobility shift assay (see J. Biomol. Screen, 2009, PP31). The test compound was dissolved in DMSO and diluted with a kinase buffer solution (20 mM HEPES-pH 7.5, 0.01% Triton X-100, 10 mM MgCl2, 2 mM DTT) and 5 μL of the compound at 5-fold final concentration of reaction dissolved in 10% DMSO was added in a 384-well plate. The compound-free control well was 5 μL of 10% DMSO, and the no-activity control well was 5 μL of kinase buffer. 10 μL of a 2.5-fold diluted CDK4 enzyme solution (GST-CDK4(1-303 end)) was added and incubated at room temperature for 10 min, and then 10 μL of the 2.5-fold diluted substrate solution Peptide FAM-P8 was added. The reaction was stopped by adding 25 μL of stop solution after incubation at 28° C. for 3 h, and the conversion rate data was read on a Caliper EZ Reader II (Caliper Life Sciences) and the conversion rate was converted to inhibition rate data according to above method. Among them, the inhibition rate %=(max−conversion)/(max−min)×100%.

[2] = target: T2, CDK6 protein kinase (GST-CDK6(1-326 end)) (Homo sapiens, UniProt Q00534); assay: CDK6 protein kinase activity, Caliper mobility shift assay; format: biochemical; settings: substrate Peptide FAM-P8, 28° C. for 3 h
T2 construct: GST-CDK6(1-326 end); GST (N)
Protocol: as §1, with “CDK6” for “CDK4”, “(GST-CDK6(1-326” for “(GST-CDK4(1-303”

T1 sequence (P11802 whole entry): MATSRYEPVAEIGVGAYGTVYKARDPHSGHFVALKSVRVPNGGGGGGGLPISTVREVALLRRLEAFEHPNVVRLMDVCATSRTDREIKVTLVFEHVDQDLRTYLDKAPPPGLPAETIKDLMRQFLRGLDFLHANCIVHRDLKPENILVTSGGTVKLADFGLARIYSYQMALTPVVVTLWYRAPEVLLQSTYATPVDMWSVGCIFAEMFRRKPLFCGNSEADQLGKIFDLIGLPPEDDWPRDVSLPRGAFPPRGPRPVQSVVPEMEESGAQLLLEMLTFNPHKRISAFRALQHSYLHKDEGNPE
T1 sequence (P30281 whole entry partner): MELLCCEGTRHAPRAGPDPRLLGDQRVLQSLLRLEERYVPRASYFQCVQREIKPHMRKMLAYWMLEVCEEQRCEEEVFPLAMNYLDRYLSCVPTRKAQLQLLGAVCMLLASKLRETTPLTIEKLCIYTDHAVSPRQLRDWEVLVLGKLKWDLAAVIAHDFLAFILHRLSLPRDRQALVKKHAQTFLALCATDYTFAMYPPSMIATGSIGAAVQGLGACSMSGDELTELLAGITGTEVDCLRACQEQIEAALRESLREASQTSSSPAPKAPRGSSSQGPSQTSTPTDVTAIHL
T2 sequence (Q00534 whole entry): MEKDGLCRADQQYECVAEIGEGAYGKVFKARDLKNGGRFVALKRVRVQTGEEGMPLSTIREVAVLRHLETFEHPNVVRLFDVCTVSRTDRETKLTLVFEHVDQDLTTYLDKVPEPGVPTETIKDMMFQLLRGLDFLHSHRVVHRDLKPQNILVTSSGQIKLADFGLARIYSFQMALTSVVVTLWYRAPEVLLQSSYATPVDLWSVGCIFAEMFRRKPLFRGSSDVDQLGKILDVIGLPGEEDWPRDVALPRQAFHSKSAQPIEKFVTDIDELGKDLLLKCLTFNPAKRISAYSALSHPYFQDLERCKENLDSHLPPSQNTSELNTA
T2 sequence (P30281 whole entry partner): as the sequence (P30281 whole entry partner) above

For `O=C1C(C(F)(F)F)Oc2cnc(Nc3ccc(N4CCNCC4)cn3)nc2N1C1CCCC1` (stereo not shown) [Compound I-11, 6-trifluoromethyl-8-cyclopentyl-2-(5-(1-piperazinyl)-pyridin-2-amino)-6H-pyrimido[5,4-b][1,4]oxazin-7(8H)-one], the IC50 [1] was ≤ 20 nM and the IC50 [2] was 20 to 100 nM.

`CCN1CCN(Cc2ccc(Nc3ncc4c(n3)N(c3ncccn3)C(=O)C(C)(C)O4)nc2)CC1` [Compound I-31, 6,6-dimethyl-8-(2-pyrimidinyl)-2-(5-(4-ethyl-1-piperazinyl)methyl-pyridine-2-amino)-6H-pyrimido[5,4-b][1,4]oxazin-7(8H)-one] was tested, and the IC50 [1] was ≤ 20 nM and the IC50 [2] was ≤ 20 nM.

In the case of `NC(=O)C1Oc2cnc(Nc3ccc(N4CCNCC4)cn3)nc2N(C2CCCC2)C1=O` (stereo not shown) [Compound I-34, 6-carboxamide-8-cyclopentyl-2-(5-(1-piperazinyl)-pyridin-2-amino)-6H-pyrimido[5,4-b][1,4]oxazin-7(8H)-one], the IC50 [1] is reported as ≤ 20 nM and the IC50 [2] is reported as ≤ 20 nM.

In the case of `CCN1CCN(Cc2ccc(Nc3ncc4c(n3)N(c3ccccn3)C(=O)C(C)(C)O4)nc2)CC1` [Compound I-30, 6,6-dimethyl-8-(2-pyridyl)-2-(5-(4-ethyl-1-piperazinyl)methyl-pyridine-2-amino)-6H-pyrimido[5,4-b][1,4]oxazin-7(8H)-one], the IC50 [1] is reported as ≤ 20 nM and the IC50 [2] is reported as 20 to 100 nM.

In the case of `CCN1CCN(Cc2ccc(Nc3ncc4c(n3)N(C3CCCC3)C(=O)C(C)(C)O4)nc2)CC1` [Compound I-3, 6,6-Dimethyl-8-cyclopentyl-2-(5-(4-ethyl-1-piperazinyl)methyl-pyridin-2-amino)-6H-pyrimido[5,4-b][1,4]oxazin-7(8H)-one], the IC50 [1] is reported as ≤ 20 nM and the IC50 [2] is reported as ≤ 20 nM.

With `CCN1CCN(Cc2ccc(Nc3ncc4c(n3)N(C3CCCC3)C(=O)C(C(C)=O)O4)nc2)CC1` (stereo not shown) [Compound I-26, 6-acetyl-8-cyclopentyl-2-(5-(4-ethyl-1-piperazinyl)methyl-pyridin-2-amino)-6H-pyrimido[5,4-b][1,4]oxazin-7(8H)-one] the IC50 [1] was ≤ 20 nM and the IC50 [2] was 100 to 500 nM.

In the case of `CC(C)N1CCN(c2ccc(Nc3ncc4c(n3)N(C3CCCC3)C(=O)C(C)(C)S4)nc2)CC1` [Compound I-24, 6,6-dimethyl-8-cyclopentyl-2-(5-(4-isopropyl-1-piperazinyl)-pyridin-2-amino)-6H-pyrimido[5,4-b][1,4]thiazin-7(8H)-one], the IC50 [1] is reported as ≤ 20 nM and the IC50 [2] is reported as ≤ 20 nM.

For `CC1(C)Oc2cnc(Nc3ccc(N4CCN(C5CCCC5)CC4)cn3)nc2N(C2CCCC2)C1=O` [Compound I-21, 6,6-dimethyl-8-cyclopentyl-2-(5-(4-cyclopentyl-1-piperazinyl)-pyridin-2-amino)-6H-pyrimido[5,4-b][1,4]oxazin-7(8H)-one], the IC50 [1] was ≤ 20 nM and the IC50 [2] was 20 to 100 nM.

In the case of `CCCN1CCN(Cc2ccc(Nc3ncc4c(n3)N(C(C)C(C)C)C(=O)C(C3CCCCCC3)S4)nc2)CC1` (stereo not shown) [Compound I-19, 6-cycloheptyl-8-(3-methyl-2-butyl)-2-(5-(4-n-propyl-1-piperazinyl)methyl-pyridine-2-amino)-6H-pyrimido[5,4-b][1,4]thiazin-7(8H)-one], the IC50 [1] is reported as ≤ 20 nM and the IC50 [2] is reported as 20 to 100 nM.

`CC(C)N1C(=O)C(C)(C)Oc2cnc(Nc3ccc(N4CCNCC4)cn3)nc21` [Compound I-1, 6,6-Dimethyl-8-isopropyl-2-(5-(1-piperazinyl)-pyridin-2-amino)-6H-pyrimido[5,4-b][1,4]oxazin-7(8H)-one] was tested, and the IC50 [1] was ≤ 20 nM and the IC50 [2] was ≤ 20 nM.

`CCN1CCN(Cc2ccc(Nc3ncc4c(n3)N(C3CCCC3)C(=O)C(C3CCC3)O4)nc2)CC1` (stereo not shown) [Compound I-14, 6-cyclobutyl-8-cyclopentyl-2-(5-(4-ethyl-1-piperazinyl)methyl-pyridin-2-amino)-6H-pyrimido[5,4-b][1,4]oxazin-7(8H)-one] was tested, and the IC50 [1] was ≤ 20 nM and the IC50 [2] was ≤ 20 nM.
